{"source": "paper PMC7326275", "about": "(PLoS Pathogens, 2020)", "key": {"[1]": {"system": "H3N2 virus (A/Fukui/20/2004)", "type": "in vivo"}, "[2]": {"system": "H1N1pdm09 virus", "type": "in vivo"}, "[3]": {"system": "nine different influenza viruses", "assay": "animal or person", "type": "in vivo", "conditions": "Mustela putorius, estimated from non-linear regression model, ferrets"}, "[4]": {"system": "influenza NA protein (nine different influenza viruses)", "assay": "Fluorometric NA inhibition assay, summary over viruses"}, "[5]": {"system": "B virus (B/Minnesota/23/2015)", "type": "in vivo"}, "[6]": {"system": "H1N1pdm09 virus (A/Perth/265/2009)", "type": "in vivo"}, "[7]": {"system": "H1N1 virus (A/Mississippi/3/2001)", "type": "in vivo"}, "[8]": {"conditions": "B, OST dosed ferrets, maximum loss from baseline"}}, "note": "Where “and” joins values, the source holds several entries; their conditions need not be identical. Equal entries are not always repeated. Where two headings read alike, the source gives them in different places. Marks after values point to notes of the source that are not given here.", "data": [{"smiles": "CCOC(=O)C1=C[C@@H](OC(CC)CC)[C@H](NC(C)=O)[C@@H](N)C1", "note": "[OST, oseltamivir]", "values": [{"measurement": "Total Score (clinical signs)", "setting": "[1]; H3N2, OST dosed ferrets", "result": 1}, {"measurement": "Temperature clinical score", "setting": "[1]; H3N2, OST dosed ferrets, maximum increase from baseline", "result": "0 (<1)"}, {"measurement": "Activity loss clinical score", "setting": "[1]; H3N2, OST dosed ferrets, maximum loss from baseline", "result": "1 (21–40)"}, {"measurement": "Nasal inflammation Cell score", "setting": "[1]; H3N2, OST dosed ferrets, nasal wash, maximum cell count", "result": "0 (<1X10^6)"}, {"measurement": "Nasal inflammation Protein score", "setting": "[1]; H3N2, OST dosed ferrets, nasal wash, maximum protein concentration", "result": "0 (<500)"}, {"measurement": "Duration of Shedding", "setting": "[1]; H3N2, ferrets, OST 5 mg/kg twice daily", "result": "2.0 ± 0.8", "unit": "days"}, {"measurement": "AUC (total area under the viral shedding curve, raw data)", "setting": "[1]; H3N2, ferrets, OST 5 mg/kg twice daily, mean ± SD", "result": "3.0 ± 3.7"}, {"measurement": "% Ferrets Infected", "setting": "[1]; in vivo", "result": "50 (4/8) %"}, {"measurement": "Peak Viral Titre", "setting": "[1]; in vivo", "result": "3.0 ± 0.8", "unit": "Log10 TCID50/ml"}, {"measurement": "Weight loss clinical score", "setting": "[1]; in vivo", "result": 0}, {"measurement": "ferrets prevented from shedding infectious virus", "setting": "[1]; in vivo", "result": 50, "unit": "%"}, {"measurement": "reduction of %AUC for cell counts (OST vs placebo)", "setting": "[1]; in vivo", "result": 69.2, "unit": "%"}, {"measurement": "reduction of %AUC for protein concentration (OST vs placebo)", "setting": "[1]; in vivo", "result": 52.4, "unit": "%"}, {"measurement": "body weight or temperature, OST- vs placebo-treated animals", "setting": "[2]; H1N1pdm09, macaques, OST 3 mg/kg orally", "result": "no significant differences"}, {"measurement": "viral titre lower in tracheal lavages of OST dosed macaques compared to placebo", "setting": "[2]; cynomolgus monkey, in vivo", "result": 1.9, "unit": "logs"}, {"measurement": "viral titres in nasal wash and tracheal lavages, OST vs placebo", "setting": "[2]; cynomolgus monkey, in vivo", "result": "not significantly different"}, {"measurement": "IC50", "setting": "[3]; read-out: IC50 corresponding to a 50% reduction in OST efficacy against viral shedding", "result": 14.6, "unit": "nM"}, {"measurement": "IC50", "setting": "[3]; read-out: IC50 corresponding to a 90% loss in oseltamivir efficacy against viral shedding", "result": 68.2, "unit": "nM"}, {"measurement": "IC50", "setting": "[4]; read-out: OST IC50 values, range over nine different influenza viruses, nine viruses of the ferret study", "result": "0.2 to 414", "unit": "nM"}, {"measurement": "IC50", "setting": "[4]; read-out: normal IC50 values of wild-type influenza A viruses, wild-type influenza A viruses", "result": "~1", "unit": "nM"}, {"measurement": "Total Score (clinical signs)", "setting": "[5]; B, OST dosed ferrets", "result": 3}, {"measurement": "Temperature clinical score", "setting": "[5]; B, OST dosed ferrets, maximum increase from baseline", "result": "0 (<1)"}, {"measurement": "Activity loss clinical score", "setting": "[5]; [8]", "result": "1 (21–40)"}, {"measurement": "Weight loss clinical score", "setting": "[5]; [8]", "result": 0}, {"measurement": "Nasal inflammation Cell score", "setting": "[5]; B, OST dosed ferrets, nasal wash, maximum cell count", "result": "1 (1 to 2 x10^6)"}, {"measurement": "Nasal inflammation Protein score", "setting": "[5]; B, OST dosed ferrets, nasal wash, maximum protein concentration", "result": "1 (500–1000)"}, {"measurement": "% Ferrets Infected", "setting": "[5]; B, ferrets, OST 5 mg/kg orally twice daily", "result": "100 (4/4) %"}, {"measurement": "Duration of Shedding", "setting": "[5]; B, ferrets, OST 5 mg/kg twice daily", "result": "5.5 ± 0.6", "unit": "days"}, {"measurement": "AUC (total area under the viral shedding curve, raw data)", "setting": "[5]; B, ferrets, OST 5 mg/kg twice daily, mean ± SD", "result": "12.9 ± 1.9"}, {"measurement": "Peak Viral Titre", "setting": "[5]; in vivo", "result": "3.7 ± 0.4", "unit": "Log10 TCID50/ml"}, {"measurement": "Total Score (clinical signs)", "setting": "[6]; H1N1pdm09, OST dosed ferrets", "result": 6}, {"measurement": "Temperature clinical score", "setting": "[6]; H1N1pdm09, OST dosed ferrets, maximum increase from baseline", "result": "2 (1.5–2.0)"}, {"measurement": "Activity loss clinical score", "setting": "[6]; H1N1pdm09, OST dosed ferrets, maximum loss from baseline", "result": "1 (21–40)"}, {"measurement": "Nasal inflammation Cell score", "setting": "[6]; H1N1pdm09, OST dosed ferrets, nasal wash, maximum cell count", "result": "1 (1 to 2 x10^6)"}, {"measurement": "Nasal inflammation Protein score", "setting": "[6]; H1N1pdm09, OST dosed ferrets, nasal wash, maximum protein concentration", "result": "2 (1001–1500)"}, {"measurement": "difference in %AUC for activity levels (OST vs placebo)", "setting": "[6]; H1N1pdm09, ferrets", "result": 53, "unit": "%"}, {"measurement": "Duration of Shedding", "setting": "[6]; H1N1pdm09, ferrets, OST 5 mg/kg twice daily", "result": "3.5 ± 0.7", "unit": "days"}, {"measurement": "AUC (total area under the viral shedding curve, raw data)", "setting": "[6]; H1N1pdm09, ferrets, OST 5 mg/kg twice daily, mean ± SD", "result": "9.3 ± 12.7"}, {"measurement": "difference in %AUC for protein concentration (OST vs placebo)", "setting": "[6]; H1N1pdm09, ferrets, nasal wash", "result": 56, "unit": "%"}, {"measurement": "% Ferrets Infected", "setting": "[6]; in vivo", "result": "50% and 50 (2/4) %"}, {"measurement": "Peak Viral Titre", "setting": "[6]; in vivo", "result": "4.2 ± 0.9", "unit": "Log10 TCID50/ml"}, {"measurement": "Weight loss clinical score", "setting": "[6]; in vivo", "result": 0}, {"measurement": "difference in %AUC for weight change (OST vs placebo)", "setting": "[6]; in vivo", "result": 4.9, "unit": "%"}, {"measurement": "Total Score (clinical signs)", "setting": "[7]; H1N1, OST dosed ferrets", "result": 3}, {"measurement": "Temperature clinical score", "setting": "[7]; H1N1, OST dosed ferrets, maximum increase from baseline", "result": "1 (1.1–1.5)"}, {"measurement": "Activity loss clinical score", "setting": "[7]; H1N1, OST dosed ferrets, maximum loss from baseline", "result": "1 (21–40)"}, {"measurement": "Nasal inflammation Cell score", "setting": "[7]; H1N1, OST dosed ferrets, nasal wash, maximum cell count", "result": "1 (1 to 2 x10^6)"}, {"measurement": "Nasal inflammation Protein score", "setting": "[7]; H1N1, OST dosed ferrets, nasal wash, maximum protein concentration", "result": "0 (<500)"}, {"measurement": "difference in %AUC for weight (OST vs placebo)", "setting": "[7]; H1N1, ferrets", "result": 2.5, "unit": "%"}, {"measurement": "Duration of Shedding", "setting": "[7]; H1N1, ferrets, OST 5 mg/kg twice daily", "result": "0.0 ± 0.0", "unit": "days"}, {"measurement": "AUC (total area under the viral shedding curve, raw data)", "setting": "[7]; H1N1, ferrets, OST 5 mg/kg twice daily, mean ± SD", "result": "0.0 ± 0.0"}, {"measurement": "difference in %AUC for cell count (OST vs placebo)", "setting": "[7]; H1N1, ferrets, nasal wash", "result": 67, "unit": "%"}, {"measurement": "difference in %AUC for protein concentration (OST vs placebo)", "setting": "[7]; H1N1, ferrets, nasal wash", "result": 74, "unit": "%"}, {"measurement": "% Ferrets Infected", "setting": "[7]; in vivo", "result": "0 (0/4) %"}, {"measurement": "Weight loss clinical score", "setting": "[7]; in vivo", "result": 0}, {"measurement": "activity levels of OST dosed ferrets", "setting": "[7]; in vivo", "result": "fluctuated around pre-exposure baseline levels"}, {"measurement": "ferrets infected (number infected/number exposed)", "setting": "[7]; in vivo", "result": "0/4"}]}]}
